Experiments:
[1] = tested on: hippocampal CA1 synapses of APP/PS1 mice; experiment: Late long-term potentiation, field recordings in hippocampal slices; set-up: species or system mouse; conditions: for S1 fEPSP slope at the end of the experiment / potentiation of S1 fEPSP slope after STET: APP/PS1 slices
[2] = tested on: SH-SY5Y-hTau441(V337M/R406W) cells; experiment: Tau phosphorylation assay (Phospho(Thr231)/Total Tau); format: cell-based, human
Experimental: Tau Phosphorylation: SH-SY5Y-hTau441(V337M/R406W) cells were maintained in culture medium (DMEM medium, 10% FCS, 1% NEAA, 1% L-Glutamine, 100 g/mL Gentamycin, 300 μg/mL Geneticin G-418) and differentiated with 10 μM retinoic acid (RA) for 5 days changing medium every 2 to 3 days. Prior to the treatment, cells were seeded onto 24-well plates at a cell density of 2×10^5 cells per well (DIV1). Drug compounds were applied on DIV2. After 24 h of incubation (DIV3), cells on 24-well plates were harvested in 60 μL RIPA-Buffer [50 mM Tris pH 7.4, 1% Nonidet P40, 0.25% Na-deoxy-cholate, 150 mM NaCl, 1 mM EDTA supplemented with freshly added 1 μM NaF, 0.2 mM Na-ortho-vanadate, 80 μM Glycerophosphate, protease (Calbiochem) and phosphatase (Sigma) inhibitor cocktail]. Protein concentration was determined by BCA assay (Pierce, ThermoFisher) and samples were adjusted to a uniform total protein concentration. Total Tau and phosphorylated Tau were determined by immunosorbent assay from Mesoscale Discovery (Phospho(Thr231)/Total Tau Kit K15121D, Mesoscale Discovery).
Tau phosphorylation: SH-SY5Y-hTau441(V337M/R406W) cells were maintained in culture medium (DMEM medium, 10% FCS, 1% NEAA, 1% L-Glutamine, 100 μg/mL Gentamycin, 300 μg/mL Geneticin G-418) and differentiated with 10 μM retinoic acid (RA) for 5 days changing medium every 2 to 3 days. Prior to the treatment, cells were seeded onto 24-well plates at a cell density of 2×10^5 cells per well (DIV1). HCQ (25 μM) was applied on DIV2. After 24 h of incubation (DIV3), cells on 24-well plates were harvested in 60 μL RIPA-Buffer [50 mM Tris pH 7.4, 1% Nonidet P40, 0.25% Na-deoxy-cholate, 150 mM NaCl, 1 mM EDTA supplemented with freshly added 1 μM NaF, 0.2 mM Na-ortho-vanadate, 80 μM Glycerophosphate, protease (Calbiochem) and phosphatase (Sigma) inhibitor cocktail]. Protein concentration was determined by BCA assay (Pierce, ThermoFisher) and samples were adjusted to a uniform total protein concentration. Total Tau and phosphorylated Tau were determined by immunosorbent assay from Mesoscale Discovery (Phospho(Thr231)/Total Tau Kit K15121D, Mesoscale Discovery).
Tau Phosphorylation: SH-SY5Y-hTau441(V337M/R406W) cells were maintained in culture medium [DMEM medium, 10% FCS, 1% nonessential amino acids (NEAA), 1% l-glutamine, gentamycin (100 μg/ml), and geneticin G-418 (300 μg/ml)] and differentiated with 10 μM retinoic acid for 5 days changing medium every 2 to 3 days. […] Protein concentration was determined by BCA assay (Pierce, Thermo Fisher Scientific, Waltham, MA), and samples were adjusted to a uniform total protein concentration. Total tau and phosphorylated tau were determined by immunosorbent assay from Mesoscale Discovery [Phospho(Thr231)/Total Tau Kit K15121D, Mesoscale Discovery, Meso Scale Diagnostics]. […]

[3] = tested on: H4-hAPP cells; experiment: Aβ secretion assay; format: cell-based, human
Experimental: Aβ Secretion: H4-hAPP cells were cultivated in Opti-MEM supplemented with 10% FCS, 1% penicillin/streptomycin 200 μg/mL Hygromycin B and 2.5 μg/mL Blasticidin S. H4-hAPP cells were seeded into 96 well plates (2×10^4 cells per well). On the next day, cells in 96 well plates were treated with compounds, R.I. (DAPT 400 nM) or vehicle. 24 h later, supernatants were collected for further Aβ measurements by MSD® (V-PLEX Aβ Peptide Panel 1 (6E10) Kit, K15200E, Mesoscale Discovery).
Aβ secretion: Human APP overexpressing H4-hAPP cells were cultivated in Opti-MEM supplemented with 10% FCS, 1% penicillin/streptomycin 200 μg/mL Hygromycin B and 2.5 μg/mL Blasticidin S. H4-hAPP cells were seeded into 96 well plates (2×10^4 cells per well). On the next day, cells in 96 well plates were treated HCQ (0.25 μM, 2.5 μM and 25 μM) or the reference item (DAPT 400 nM), a γ-secretase inhibitor vehicle. 24 h later, supernatants were collected for further Aβ measurements by MSD® (V-PLEX Aβ Peptide Panel 1 (6E10) Kit, K15200E, Mesoscale Discovery).
Cultivation and treatment of H4-hAPP cells: H4-hAPP cells were thawed and cultivated in Opti-MEM supplemented with 10% FCS, 1% penicillin/streptomycin 200 μg/ml Hygromycin B and 2.5 μg/ml Blasticidin S (=culture medium). H4-hAPP cells were seeded into 96 well plates (2×10^4 cells per well). On the next day, cells in 96 well plates were treated with TUDCA (100 μM (C1), 10 μM (C2), or 1.0 μM (C3)), R.I. (DAPT 400 nM) or vehicle. Alternatively, cells in 96 well plates were treated with 25 μM HCQ/0.1 μM TUDCA (C1), 2.5 μM HCQ/100 μM TUDCA (C2), and 2.5 μM HCQ/10 μM TUDCA (C3). 24 h later, supernatants were collected for further Aβ measurements by MSD. The experiment was performed in n=6 technical replicates for all groups.
Aβ38, 40, 42 measurement: Supernatants were diluted 1:10 and analyzed for human Aβ38, 40, and 42 with MSD® 96-well MULTI-SPOT® 6E10 Abeta Triplex Assay (Mesoscale Discovery, Rockville, MD). The immune assay was carried out according to the manual and plates are read on the MESO QuickPlex SQ 120 multiplexing instrument. Analyte levels were evaluated according to adequate Aβ peptide standards (MSD) as pg per mL.
Aβ Secretion: H4-hAPP cells were cultivated in Opti-MEM supplemented with 10% FCS, 1% penicillin/streptomycin, hygromycin B (200 μg/ml), and blasticidin S (2.5 μg/ml). H4-hAPP cells were seeded into 96-well plates (2×10^4 cells per well). On the next day, cells in 96-well plates were treated with compounds, reference item [400 nM N-[N-(3,5-difluorophenacetyl-1-alanyl)]-S-phenylglycine t-butyl ester (DAPT)], or vehicle. Twenty-four hours later, supernatants were collected for further Aβ measurements by MSD [V-PLEX Aβ Peptide Panel 1 (6E10) Kit, K15200E, Mesoscale Discovery].
Culture and treatment of H4-hAPP cells: H4-hAPP cells were thawed and cultivated in Opti-MEM supplemented with 10% FCS, 1% penicillin/streptomycin 200 μg/ml Hygromycin B and 2.5 μg/ml Blasticidin S (=culture medium). H4-hAPP cells were seeded into 96 well plates (2×10^4 cells per well). On the next day, cells in 96 well plates were treated with T.I., R.I. (DAPT 400 nM) or vehicle. 24 h later, supernatants were collected for further Aβ measurements by MSD. The experiment was performed in n=6 technical replicates for all groups.
Aβ38, 40, 42 measurement in H4-hAPP cells: Supernatants were diluted 1:10 and analyzed for human Aβ38, 40, and 42 with MSD® 96-well MULTI-SPOT® 6E10 Abeta Triplex Assay (Mesoscale Discovery). The immune assay was carried out according to the manual and plates were read on the MESO QuickPlex SQ 120. Analyte levels were evaluated according to adequate Aβ peptide standards (MSD) as pg per mL.

[4] = tested on: murine microglial cell line BV-2; experiment: LPS-induced neuroinflammation in BV-2 microglial cells (cytokines by MSD V-PLEX, MTT); format: cell-based, mouse
Experimental: Lipopolysaccharide (LPS)-Induced Neuroinflammation: The murine microglial cell line BV-2 was cultivated in DMEM medium supplemented with 10% FCS, 1% penicillin/streptomycin and 2 mM L-glutamine (culture medium). For LPS stimulation assay, 5000 BV-2 cells per well (uncoated 96 well plates) were plated out and the medium was changed to treatment medium (DMEM, 5% FCS, 2 mM L-glutamine). After changing cells to treatment medium, drug compounds were administered 1 hour before LPS stimulation (Sigma-Aldrich; L6529; 1 mg/ml stock in ddH2O, final concentration in well: 100 ng/ml (dilutions in medium)). Cells treated with vehicle, cells treated with LPS alone, as well as cells treated with LPS plus reference item (dexamethasone 10 μM, Sigma D4902) served as controls. After 24 h of stimulation, cell supernatants were collected for the cytokine measurement (V-PLEX Proinflammatory Panel 1 Mouse Kit, K15048D, Mesoscale) and cells were subjected to MTT assay.
MTT Assay: MTT solution was added to each well in a final concentration of 0.5 mg/mL. After 2 h, the MTT containing medium was aspirated. Cells were lysed in 3% SDS and the formazan crystals were dissolved in isopropanol/HCl. Optical density was measured with a Cytation 5 (Biotek) multimode reader at wavelength 570 nm. Values were calculated as percent of control values (vehicle control or lesion control).
After changing cells to treatment medium, HCQ (0.25 μM, 2.5 μM and 25 μM) was applied 1 hour before LPS stimulation (Sigma-Aldrich; L6529; 1 mg/ml stock in ddH2O, final concentration in well: 100 ng/ml (dilutions in medium)).

[5] = tested on: BV-2 cells; experiment: Aβ1-42 clearance assay; format: cell-based, mouse; conditions: posterior probability of a protective effect, Bayesian dose-response model
Experimental: AB Clearance: For the amyloid beta (Aβ) clearance assay, 20000 BV-2 cells per well (uncoated 96 well plates) were plated out. After changing cells to treatment medium, drug compounds were administered 1 hour before Aβ stimulation (Bachem 4061966; final concentration in well: 200 ng/ml (dilutions in medium)). Cells treated with vehicle and cells treated with Aβ alone served as controls. After 3 h of Aβ stimulation, cell supernatants were collected for the Aβ measurement and cells were carefully washed twice with PBS and thereafter lysed in 35 μL cell lysis buffer (50 mM Tris-HCl, pH 7.4, 150 mM NaCl, 5 mM EDTA, 1% SDS) supplemented with protease inhibitors. Supernatants and cell lysates were analyzed for human Aβ42 with MSD® V-PLEX Human Aβ42 Peptide (6E10) Kit (K151LBE, Mesoscale Discovery). The immune assay was carried out according to the manual and plates were read on the MESO QuickPlex SQ 120.
Aβ1-42 clearance: For Abeta (Aβ1-42) clearance assay, 20,000 BV-2 cells per well (uncoated 96 well plates) were plated out. After changing cells to treatment medium, HCQ (0.25 μM, 2.5 μM and 25 μM) was applied 1 hour before Aβ1-42 stimulation (Bachem 4061966; final concentration in well: 200 ng/ml (dilutions in medium)). Cells treated with vehicle (0.1% DMSO) and cells treated with Aβ1-42 alone served as controls. After 3 h of Aβ1-42 stimulation, cell supernatants were collected for the Aβ1-42 measurement and cells were carefully washed twice with PBS and thereafter lysed in 35 μL cell lysis buffer (50 mM Tris-HCl, pH 7.4, 150 mM NaCl, 5 mM EDTA, 1% SDS) supplemented with protease inhibitors. Supernatants and cell lysates were analyzed for human Aβ1-42 with MSD® V-PLEX Human Aβ42 Peptide (6E10) Kit (K151LBE, Mesoscale Discovery). The immune assay was carried out according to the manufacturer's manual and plates were read on the MESO QuickPlex SQ 120.
Aβ Clearance: 20,000 BV2 cells per well (uncoated 96-well plates were plated out. After changing cells to treatment medium, drug compounds were administered 1 hour before Aβ stimulation (final concentration in well 200 ng/ml; dilutions in medium). Cells treated with vehicle and cells treated with Aβ alone served as controls. After 3 hours of Aβ stimulation, cell supernatants were collected for the Aβ measurement and cells were carefully washed twice with PBS and thereafter lysed in 35 μl of cell lysis buffer (50 mM tris-HCl, pH 7.4, 150 mM NaCl, 5 mM EDTA, and 1% SDS) supplemented with protease inhibitors. Supernatants and cell lysates were analyzed for human Aβ42 with the MSD V-PLEX Human Aβ42 Peptide (6E10) Kit (K151LBE, Mesoscale Discovery). The immune assay was carried out according to the manual, and plates were read on MESO QuickPlex SQ 120 (Meso Scale Diagnostics, Rockville, MD).
For Aβ clearance assay, 20,000 BV-2 cells per well (uncoated 96 well plates) were plated out. After 24 hours, medium was changed to treatment medium (DMEM, 5% FCS, 2 mM L-glutamine) and cells were maintained in treatment medium for the remaining culture period. After changing cells to treatment medium, the test items were administered 1 hour before Aβ stimulation (Bachem 4061966; final concentration in well: 200 ng/mL (dilutions in medium)). Cells treated with vehicle, cells treated with Aβ alone, as well as wells with Aβ but no cells served as controls. All wells were handled the same way. After 3 h of Aβ stimulation, cell supernatants were collected for the Aβ measurement and cells were carefully washed twice with PBS and thereafter lysed in 35 μl cell lysis buffer (50 mM Tris-HCl, pH 7.4, 150 mM NaCl, 5 mM EDTA, 1% SDS) supplemented with protease inhibitors. Cells were incubated for 15 min at RT on a plate shaker, samples were frozen at −80° C. until further use. The experiment was performed in n=6 technical replicates for all groups. […]

[6] = tested on: hippocampal cell cultures; conditions: Rzemieniec et al. 2019; cited from earlier work
[7] = tested on: hippocampal neuronal cells; conditions: Lee et al. 2019; cited from earlier work
[8] = tested on: iPSCs; experiment: LPS induced neuroinflammation (iPSCs); format: cell-based; conditions: posterior probability of a protective effect
Experimental: Cell-based assays: For each combination of drugs and assay, the posterior probability P(Hi|data) of protective, neutral, and adverse drug effect (formal hypotheses H1, H0, H2, respectively) were evaluated. Dose-response relationships (x-y data) were modeled with a Bayesian nonlinear regression model:
and Bayesian estimation of the posterior density of the fold change was performed using default settings of the Markov chain Monte Carlo samples implemented by the PyMC python library. For efficient sample, each bioactivity data set was standardized such that […] corresponded to one standard deviation. Diagnostic criteria (posterior sample of fitted curves, effective sample sizes, values of the r statistic, and Markov chain standard errors) were inspected for the fit and three poorly fitted data sets out of a total of 91 data sets were excluded.

With `CCN(CCO)CCCC(C)Nc1ccnc2cc(Cl)ccc12` (racemic) [HCQ racemic free base] the “late-LTP in APP/PS1 mice” value ([1]; 25 μM HCQ racemic free base) was “partial rescue”, the “late-LTP in APP/PS1 mice” value ([1]; 50 μM HCQ racemic free base) was “diminished initial potentiation which did not last” and the “late LTP in age-matched WT mice” value ([1]; 50 μM HCQ racemic free base, preliminary (n=1)) was “partially impaired”. For the same compound, the “S1 fEPSP slope at the end of the experiment” value ([1]; 25 μM HCQ racemic free base) was 118.003±7.753%, the “potentiation of S1 fEPSP slope after STET” value ([1]; 25 μM HCQ racemic free base) was 155.545±12.309% and the “S1 fEPSP slope at the end of the experiment” value ([1]; 50 μM HCQ racemic free base) was 119.117±8.167%. The “potentiation of S1 fEPSP slope after STET” value ([1]; 50 μM HCQ racemic free base) was 128.809±8.116%.

With `COc1ccc(S(=O)(=O)Nc2cc(-c3c(O)ccc4ccccc34)c(O)c3ccccc23)cc1` [C188-9, N-[4-hydroxy-3-(2-hydroxynaphthalen-1-yl)naphthalen-1-yl]-4-methoxybenzenesulfonamide] the “phosphorylated tau 231 (ptau)” value ([2]; 10 μM, 24 h, relative to VC) was “significantly reduced”, the “Aβ42: Aβ40 ratio” value ([3]; 1 μM, relative to VC) was “significantly reduced” and the “endogenous Aβ1-42” value ([3]; 1 μM, relative to VC) was “significantly reduced”. The cell viability ([3]; C188-9 in Aβ secretion assay, results not shown) was “no adverse effects on cell viability”, the “release of IL-1β” value ([4]; 0.3 μM and 0.6 μM, relative to LPS) was “significantly reduced” and the “release of IL-6” value ([4]; 0.6 μM, 24 h LPS stimulation, relative to LPS) was “significantly reduced”. For the same compound, the cell viability ([4]; C188-9 in LPS assay, results not shown) was “no adverse effects on cell viability”.

For `Cc1c[nH]c(-c2cnc(NCCNc3ccc(C#N)cn3)nc2-c2ccc(Cl)cc2Cl)n1` [CHIR], the “phosphorylated Tau” value ([2]; reference item, compared to vehicle control) was “significantly reduced”.

In the case of `C[C@H](NC(=O)Cc1cc(F)cc(F)c1)C(=O)N[C@H](C(=O)OC(C)(C)C)c1ccccc1` [DAPT, N-[N-(3,5-difluorophenacetyl-1-alanyl)]-S-phenylglycine t-butyl ester], the “Aβ species (Aβ1-38, 1-40 and 1-42) in supernatant” value ([3]; reference item, 400 nM, 24 h) is reported as “significantly reduced all tested species”.

In the case of `c1ccc2c(Cc3c[nH]c4ccccc34)c[nH]c2c1` [DIM, 3,3′-diindolylmethane], the “effect in Aβ clearance (BV2 cells)” value [5] is reported as “strongly protective”, the “LTP in APP/PS1 slices” value ([1]; 10 μM DIM, acute application) is reported as “rescues LTP” and the “late LTP in APP/PS1 slices” value ([1]; 3-hour pre-incubation with 10 μM DIM) is reported as “no longer results in rescue”. The “ischemia-induced apoptosis and autophagy” value [6] was “protect”, the oxidative stress-induced apoptosis [7] was “inhibit” and the “effect in LPS induced neuroinflammation (iPSCs)” value [8] was “strongly protective”. The “effect in LPS induced neuroinflammation (BV2 cells)” value ([4]; posterior probability of a protective effect) was “protective”.

— patent publication US20240269128A1, “COMPOUNDS FOR TREATING OR PREVENTING ALZHEIMER'S DISEASE” (THE UNITED STATES OF AMERICA, as represented by the …, priority 2021, published 2024)
